Key:
Assay type in all cases: ADME, organism-based
[1] = tested on: Homo sapiens; assay: Distributional clearance in patient with community or hospital-acquired pneumonia at […], iv loading dose followed by […] administered every 12 hrs; conditions: in vivo
[2] = Volume of distribution in central compartment in patient with community or hospital-acquired pneumonia at […], iv loading dose followed by […] administered every 12 hrs; conditions: human, in vivo, read-out: Vc
[3] = Clearance in patient with community or hospital-acquired pneumonia at […], iv loading dose followed by […] administered every 12 hrs; conditions: human, in vivo
[4] = tested on: Homo sapiens; assay: Volume of distribution at steady state in patient with community or hospital-acquired pneumonia at […], iv loading dose followed by […] administered every 12 hrs; conditions: in vivo

CLd [1]: 85.1 L/h
Vd [2]: 65.2 L
clearance [3]: 320 mL/min
Vdss [4]: 398 L
Compound: CN(C)c1cc(NC(=O)CNC(C)(C)C)c(O)c2c1C[C@H]1C[C@H]3[C@H](N(C)C)C(O)=C(C(N)=O)C(=O)[C@@]3(O)C(O)=C1C2=O [TIGECYCLINE]

Source: ChEMBL document CHEMBL1687817, “Tigecycline population pharmacokinetics in patients with community- or hospital-acquired pneumonia” (Antimicrob Agents Chemother, 2010)
